Measurements published in patent US11046725B2, “Galactoside inhibitor of galectins” (GALECTO BIOTECH AB, priority 2018, dated 2021).

Experiments:
Galectin-1 = Galectin-1 (Homo sapiens (Human), UniProt P09382); experiment: Fluorescence anisotropy assay, inhibition of galectin / fluorescein tagged saccharide probe interaction; format: binding
Galectin-3 = Galectin-3 (Homo sapiens (Human), UniProt P17931); experiment: as above; format: binding
Protocol: Experimental Procedures (Evaluation of Kd Values)
The affinity of Example 1-33 for galectins were determined by a fluorescence anisotropy assay where the compound was used as an inhibitor of the interaction between galectin and a fluorescein tagged saccharide probe as described Sörme, P., Kahl-Knutsson, B., Huflejt, M., Nilsson, U. J., and Leffler H. (2004) Fluorescence polarization as an analytical tool to evaluate galectin-ligand interactions. Anal. Biochem. 334: 36-47, (Sörme et al., 2004) and Monovalent interactions of Galectin-1 By Salomonsson, Emma; Larumbe, Amaia; Tejler, Johan; Tullberg, Erik; Rydberg, Hanna; Sundin, Anders; Khabut, Areej; Frejd, Torbjorn; Lobsanov, Yuri D.; Rini, James M.; et al, From Biochemistry (2010), 49(44), 9518-9532, (Salomonsson et al., 2010).

galectins = details: cited from earlier work

Sequence of Galectin-3 (P17931 whole entry): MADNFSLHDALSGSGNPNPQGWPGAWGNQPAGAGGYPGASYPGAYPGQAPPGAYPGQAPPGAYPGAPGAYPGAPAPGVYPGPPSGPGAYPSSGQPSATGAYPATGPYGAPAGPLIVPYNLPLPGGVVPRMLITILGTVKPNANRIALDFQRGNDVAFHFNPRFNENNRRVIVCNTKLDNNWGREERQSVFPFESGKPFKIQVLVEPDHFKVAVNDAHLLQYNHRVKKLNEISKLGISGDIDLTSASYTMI
Sequence of Galectin-1 (P09382 whole entry): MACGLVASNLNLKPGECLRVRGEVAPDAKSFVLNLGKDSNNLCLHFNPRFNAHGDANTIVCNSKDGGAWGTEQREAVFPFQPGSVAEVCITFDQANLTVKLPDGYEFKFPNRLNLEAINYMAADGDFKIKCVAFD

Kd (Galectin-1) [µM]	Kd (Galectin-3) [µM]	Compound	Kd (galectins; Leffler, 2001, Leffler et al., 2004, read-out: Kd, all galectins) [µM]	affinity relative to lactose (galectins; compared with lactose)
0.033	2.6	N#Cc1ncc(Br)cc1S[C@H]1O[C@H](CO)[C@H](O)[C@H](n2cc(-c3csc(O)n3)nn2)[C@H]1O [Example 14, 5-Bromo-2-cyano-pyridine-3-yl 3-deoxy-3-[4-(2-hydroxythiazol-4-yl)-1H-1,2,3-triazol-1-yl]-1-thio-α-D-galactopyranoside]	–	–
0.071	6.5	OC[C@H]1O[C@H](Sc2ccc(C(F)(F)F)c(Cl)c2)[C@H](O)[C@@H](n2cc(-c3csc(O)n3)nn2)[C@H]1O [Example 24, 3-Chloro-4-trifluoromethylphenyl 3-deoxy-3-[4-(2-hydroxythiazol-4-yl)-1H-1,2,3-triazol-1-yl]-1-thio-α-D-galactopyranoside]	–	–
0.068	0.25	N#Cc1ncc(S[C@H]2O[C@H](CO)[C@H](O)[C@H](n3cc(-c4nc(Cl)cs4)nn3)[C@H]2O)cc1Br [Example 6, 5-Bromo-6-cyano-3-pyridyl 3-[4-(4-chlorothiazol-2-yl)-1H-1,2,3-triazol-1-yl]-3-deoxy-1-thio-α-D-galactopyranoside]	–	–
0.028	2.8	OC[C@H]1O[C@H](Sc2cnc(C(F)(F)F)c(Cl)c2)[C@H](O)[C@@H](n2cc(-c3csc(O)n3)nn2)[C@H]1O [Example 17, 5-Chloro-6-trifluoromethyl-pyridin-3-yl 3-deoxy-3-[4-(2-hydroxythiazol-4-yl)-1H-1,2,3-triazol-1-yl]-1-thio-α-D-galactopyranoside]	–	–
0.11	0.25	OC[C@H]1O[C@H](Sc2cnc(C(F)(F)F)c(Br)c2)[C@H](O)[C@@H](n2cc(-c3nc(Cl)cs3)nn2)[C@H]1O [Example 1, 5-Bromo-6-trifluoromethyl-pyridine-3-yl 3-[4-(4-chlorothiazol-2-yl)-1H-1,2,3-triazol-1-yl]-3-deoxy-1-thio-α-D-galactopyranoside]	–	–
0.056	6	OC[C@H]1O[C@H](Sc2cc(Cl)c(Cl)c(Cl)c2)[C@H](O)[C@@H](n2cc(-c3csc(O)n3)nn2)[C@H]1O [Example 20, 3,4,5-trichlorophenyl 3-deoxy-3-[4-(2-hydroxythiazol-4-yl)-1H-1,2,3-triazol-1-yl]-1-thio-α-D-galactopyranoside]	–	–
0.044	2.1	CN(C)C(=O)c1ccc(Cl)cc1S[C@H]1OC(CO)[C@H](O)[C@H](n2cc(-c3csc(O)n3)nn2)C1O (stereo partly drawn) [Example 32, 4-Chloro-N,N′-dimethylbenzamide-2-yl 3-deoxy-3-[4-(2-hydroxythiazol-4-yl)-1H-1,2,3-triazol-1-yl]-1-thio-α-D-galactopyranoside]	–	–
0.085	0.2	N#Cc1ncc(Br)cc1S[C@H]1O[C@H](CO)[C@H](O)[C@H](n2cc(-c3nc(Cl)cs3)nn2)[C@H]1O [Example 4, 5-Bromo-2-cyano-pyridine-3-yl 3-[4-(4-chlorothiazol-2-yl)-1H-1,2,3-triazol-1-yl]-3-deoxy-1-thio-α-D-galactopyranoside]	–	–
0.032	3.1	OC[C@H]1O[C@H](Sc2cnc(C(F)(F)F)c(Br)c2)[C@H](O)[C@@H](n2cc(-c3csc(O)n3)nn2)[C@H]1O [Example 23, 5-Bromo-6-trifluoromethyl-3-pyridyl 3-deoxy-3-[4-(2-hydroxythiazol-4-yl)-1H-1,2,3-triazol-1-yl]-1-thio-α-D-galactopyranoside]	–	–
0.082	6.6	Cc1ccc(S[C@H]2O[C@H](CO)[C@H](O)[C@H](n3cc(-c4csc(O)n4)nn3)[C@H]2O)cc1Cl [Example 26, 3-Chloro-4-methylphenyl 3-deoxy-3-[4-(2-hydroxythiazol-4-yl)-1H-1,2,3-triazol-1-yl]-1-thio-α-D-galactopyranoside]	–	–
0.16	0.58	OC[C@H]1O[C@H](Sc2cnc(C(F)(F)F)c(Br)c2)[C@H](O)[C@@H](n2cc(-c3nc(Br)cs3)nn2)[C@H]1O [Example 2, 5-Bromo-6-trifluoromethyl-pyridine-3-yl 3-[4-(4-bromothiazol-2-yl)-1H-1,2,3-triazol-1-yl]-3-deoxy-1-thio-α-D-galactopyranoside]	–	–
0.054	1.7	CN(C)C(=O)c1ncc(Cl)cc1S[C@H]1OC(CO)[C@H](O)[C@H](n2cc(-c3csc(O)n3)nn2)C1O (stereo partly drawn) [Example 33, 5-Chloro-N,N′-dimethyl-picolinamide-3-yl 3-deoxy-3-[4-(2-hydroxythiazol-4-yl)-1H-1,2,3-triazol-1-yl]-1-thio-α-D-galactopyranoside]	–	–
0.095	0.22	N#Cc1ncc(Cl)cc1S[C@H]1O[C@H](CO)[C@H](O)[C@H](n2cc(-c3nc(Cl)cs3)nn2)[C@H]1O [Example 5, 5-Chloro-2-cyano-pyridine-3-yl 3-[4-(4-chlorothiazol-2-yl)-1H-1,2,3-triazol-1-yl]-3-deoxy-1-thio-α-D-galactopyranoside]	–	–
0.013	4.6	OC[C@H]1O[C@H](Sc2cc(Cl)c(Cl)cc2F)[C@H](O)[C@@H](n2cc(-c3csc(O)n3)nn2)[C@H]1O [Example 31, 3,4-Dichloro-6-fluoro-phenyl 3-deoxy-3-[4-(2-hydroxythiazol-4-yl)-1H-1,2,3-triazol-1-yl]-1-thio-α-D-galactopyranoside]	–	–
–	–	OC[C@H]1O[C@@H](O[C@H]2[C@H](O)[C@@H](O)C(O)O[C@@H]2CO)[C@H](O)[C@@H](O)[C@H]1O (stereo partly shown) [Lactose]	100 to 1000	–
0.063	6	N#Cc1ccc(S[C@H]2O[C@H](CO)[C@H](O)[C@H](n3cc(-c4csc(O)n4)nn3)[C@H]2O)cc1Br [Example 22, 3-Bromo-4-cyanophenyl 3-deoxy-3-[4-(2-hydroxythiazol-4-yl)-1H-1,2,3-triazol-1-yl]-1-thio-α-D-galactopyranoside]	–	–
0.019	2.8	N#Cc1ncc(S[C@H]2O[C@H](CO)[C@H](O)[C@H](n3cc(-c4csc(O)n4)nn3)[C@H]2O)cc1Br [Example 15, 5-Bromo-6-cyano-3-pyridyl 3-deoxy-3-[4-(2-hydroxythiazol-4-yl)-1H-1,2,3-triazol-1-yl]-1-thio-α-D-galactopyranoside]	–	–
0.095	0.42	N#Cc1ncc(S[C@H]2O[C@H](CO)[C@H](O)[C@H](n3cc(-c4nc(Cl)cs4)nn3)[C@H]2O)cc1Cl [Example 3, 5-Chloro-6-cyano-pyridine-3-yl 3-[4-(4-chlorothiazol-2-yl)-1H-1,2,3-triazol-1-yl]-3-deoxy-1-thio-α-D-galactopyranoside]	–	–
0.046	5.7	O=C(O)c1ncc(Cl)cc1S[C@H]1O[C@H](CO)[C@H](O)[C@H](n2cc(-c3csc(O)n3)nn2)[C@H]1O [Example 28, 2-carboxy-5-chloropyridyl 3-deoxy-3-[4-(2-hydroxythiazol-4-yl)-1H-1,2,3-triazol-1-yl]-1-thio-α-D-galactopyranoside]	–	–
–	–	O=C[C@H](O)[C@@H](O)[C@@H](O)[C@H](O)CO [Galactose, D-galactose]	–	50-100 times lower
0.038	8	N#Cc1ncc(S[C@H]2O[C@H](CO)[C@H](O)[C@H](n3cc(-c4csc(O)n4)nn3)[C@H]2O)cc1Cl [Example 13, 5-Chloro-6-cyano-pyridine-3-yl 3-deoxy-3-[4-(2-hydroxythiazol-4-yl)-1H-1,2,3-triazol-1-yl]-1-thio-α-D-galactopyranoside]	–	–
0.006	2.2	N#Cc1ncc(Cl)cc1S[C@H]1O[C@H](CO)[C@H](O)[C@H](n2cc(-c3csc(O)n3)nn2)[C@H]1O [Example 16, 5-Chloro-2-cyano-3-pyridyl 3-deoxy-3-[4-(2-hydroxythiazol-4-yl)-1H-1,2,3-triazol-1-yl]-1-thio-α-D-galactopyranoside]	–	–
0.49	1.4	OC[C@H]1O[C@H](Sc2ccc(Cl)c(Cl)c2)[C@H](O)[C@@H](n2cc(-c3csc(Cl)n3)nn2)[C@H]1O [Example 7, 3,4-Dichlorophenyl 3-[4-(2-chlorothiazol-4-yl)-1H-1,2,3-triazol-1-yl]-3-deoxy-1-thio-α-D-galactopyranoside]	–	–
0.39	0.069	OC[C@H]1O[C@H](Sc2cnc(C(F)(F)F)c(Br)c2)[C@H](O)[C@@H](n2cc(-c3nc(Cl)c(Cl)s3)nn2)[C@H]1O [Example 29, 5-Bromo-6-trifluoromethyl-pyridine-3-yl 3-deoxy-3-[4-(4,5-dichlorothiazol-2-yl)-1H-1,2,3-triazol-1-yl]-1-thio-α-D-galactopyranoside]	–	–
0.05	4.6	OC[C@H]1O[C@H](Sc2cc(Br)c(F)c(Br)c2)[C@H](O)[C@@H](n2cc(-c3csc(O)n3)nn2)[C@H]1O [Example 21, 3,5-dibromo-4-fluorophenyl 3-deoxy-3-[4-(2-hydroxythiazol-4-yl)-1H-1,2,3-triazol-1-yl]-1-thio-α-D-galactopyranoside]	–	–

Compound	Kd (Galectin-1) [µM]	Kd (Galectin-3) [µM]	Kd (galectins; Leffler, 2001, Leffler et al., 2004, read-out: Kd, all galectins) [µM]	affinity relative to lactose (galectins; compared with lactose)
OC[C@H]1O[C@H](Sc2cc(Cl)c(F)c(Cl)c2)[C@H](O)[C@@H](n2cc(-c3csc(O)n3)nn2)[C@H]1O [Example 18, 3,5-Dichloro-4-fluoro-phenyl 3-deoxy-3-[4-(2-hydroxythiazol-4-yl)-1H-1,2,3-triazol-1-yl]-1-thio-α-D-galactopyranoside]	0.027	9.7	–	–
OC[C@H]1O[C@H](Sc2ccc(Cl)c(Cl)c2)[C@H](O)[C@@H](n2cc(-c3csc(O)n3)nn2)[C@H]1O [Example 12, 3,4-Dichlorophenyl 3-deoxy-3-[4-(2-hydroxythiazol-4-yl)-1H-1,2,3-triazol-1-yl]-1-thio-α-D-galactopyranoside]	0.058	8.6	–	–
